Laboratory results published in patent US9403822B2, “Apoptosis-inducing agents for the treatment of cancer and immune and autoimmune diseases” (AbbVie Inc., priority 2010, dated 2016).
Like-named read-outs stand apart in the source and are kept apart here.

Experiments:
RS4;11 cells = test: RS4;11 cell viability assay (CellTiter Glo); type: cell-based; details: acute lymphoblastic leukemia cell line RS4;11, 10% human serum, 48 hours
Text: The acute lymphoblastic leukemia (ALL) cell line RS4;11 was used as the primary human cell line to assess the cellular activity of Bcl-2 selective agents in vitro and their efficacy in vivo. Previous studies have shown by BH3 profiling, a mitochondrial assay that classifies blocks in the intrinsic apoptotic pathway, that RS4;11 cells were highly dependant on BCL-2 for survival and sensitive to the Bcl-2 family member inhibitor ABT-737 (Blood, 2008, Vol. III, 2300-2309).
RS4;11 cells were cultured in RPMI-1640 supplemented with 2 mM L-glutamine, 10% FBS, 1 mM sodium pyruvate, 2 mM HEPES, 1% penicillin/streptomycin (Invitrogen), 4.5 g/L glucose and maintained at 37 C containing 5% CO2. To test for the cellular activity of compounds in vitro, cells were treated at 50,000 cells per well in 96-well microliter plates in the presence of 10% human serum for 48 hours in a humidified chamber with 5% CO2. Cell cytotoxicity EC50 values were assessed using CellTiter Glo (Promega) according to the manufacturers recommendations. The EC50 values were determined as a percentage of viable cells following treatment compared to the untreated control cells.

GST-Bcl-2 = GST-Bcl-2 (Homo sapiens (Human), UniProt P10415); test: Time Resolved-Fluorescence Resonance Energy Transfer (TR-FRET) Bcl-2 binding assay; details: F-Bak peptide probe 100 nM, GST-Bcl-2 1 nM, Tb-anti-GST 1 nM; Wang's equation
Experimental: Determination of the utility of compounds having Formula (I) as binders to and inhibitors of anti-apoptotic Bcl-2 proteins was performed using the Time Resolved-Fluorescence Resonance Energy Transfer (TR-FRET) Assay. Tb-anti-GST antibody was purchased from Invitrogen (Catalog No. PV4216). Representative compounds were serially diluted in dimethyl sulfoxide (DMSO) starting at 50 μM (2× starting concentration; 10% DMSO) and 10 μL were transferred into a 384-well plate. […] For each assay, the probe/antibody and protein/probe/antibody were included on each assay plate as negative and positive controls, respectively. Fluorescence was measured on the ENVISION plate reader (Perkin Elmer) using a 340/35 nm excitation filter and 520/525 (F-Bak peptide) and 495/510 nm (Tb-labeled anti-Histidine antibody) emission filters. Inhibition constants (Ki) are shown in TABLE 2 below and were determined using Wang's equation (Wang Z.-X. An Exact Mathematical Expression For Describing Competitive Binding Of Two Different Ligands To A Protein Molecule. FEBS Lett. 1995, 360:111-4).

[1] = Solubility determination in aqueous media; details: for solubility: phosphate buffer, pH 7.4, aqueous buffer, thermodynamic from solid
Experimental: Reagents used included 0.1 N HCl, J T Baker Lot G08515; and 50 mM Phosphate pH 7.4, μ=0.155 w/NaCl, NB93214-089, Equipment/Instruments used included balance: Mettler Toledo, UMX2, LC805269; Rainin Pipette; 1000 μL RF09683 μL, 200 μL, RF20783; water bath: Vankel, LC 954896, set at 25° C. and 25 RPM, Thermometer: TB085699); and water bath: Vankel, LC 127535, set at 37° C. and 25 RPM, Thermometer: TB096544).
Examples were tested in aqueous media at 25° C. or 37° C. Excess amount of the bulk drug was weighed out and mixed with an aliquot of target media in a clear glass vial. The vial was sealed with cap and wrapped with aluminum foil, then tumbled in a 25° C. or 37° C. water bath as appropriate. When equilibration was completed, she samples were removed from the water bath and the final pH's were measured. The suspensions were filtered through 4 mm, 0.2 μm Millex-LG syringe filters (hydrophilic PTFE membrane, Millipore, Lot N9JN70696). Each filter was used only for one sample and the first three droplets were discarded. The filtrate was assayed after appropriate dilution with the same solvent as used for stock solution. Three replicates were prepared. The concentration of the sample was calculated against the calibration curve for the compound.

Sequence of GST-Bcl-2 (P10415 whole entry): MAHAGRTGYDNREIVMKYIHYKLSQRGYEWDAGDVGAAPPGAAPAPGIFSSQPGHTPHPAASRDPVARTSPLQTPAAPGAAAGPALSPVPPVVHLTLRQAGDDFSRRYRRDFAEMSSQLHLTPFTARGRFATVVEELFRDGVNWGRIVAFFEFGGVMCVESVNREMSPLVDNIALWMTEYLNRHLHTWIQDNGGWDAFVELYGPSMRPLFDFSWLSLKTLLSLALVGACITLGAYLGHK

| Compound | EC50 (RS4;11 cells) [nM] | Aqueous Solubility (pH 7.4) [ug/mL] | Ki (GST-Bcl-2) [nM] | solubility [1] [µg/mL] | Aqueous Solubility (pH 7.4) ([1]; 50 mM phosphate pH 7.4, 25° C. or 37° C.) [ug/mL] |
| --- | --- | --- | --- | --- | --- |
| (5-{5-(4-{[2-(4-chlorophenyl)-4,4-dimethylcyclohex-1-en-1-yl]methyl}piperazin-1-yl)-2-[({3-nitro-4-[(tetrahydro-2H-pyran-4-ylmethyl)amino]phenyl}sulfonyl)carbamoyl]phenoxy}-7H-pyrrolo[2,3-b]pyridin-7-yl)methyl dihydrogen phosphate [Example 2] | 180 | >4820 | < 0.01 | – | – |
| (5-{5-(4-{[2-(4-chlorophenyl)-4,4-dimethylcyclohex-1-en-1-yl]methyl}piperazin-1-yl)-2-[({4-[(4-fluorotetrahydro-2H-pyran-4-yl)methoxy]-3-nitrophenyl}sulfonyl)carbamoyl]phenoxy}-7H-pyrrolo[2,3-b]pyridin-7-yl)methyl dihydrogen phosphate [Example 3] | 41 | >10850 | – | – | – |
| trans-4-[(4-{[4-(4-{[2-(4-chlorophenyl)-4,4-dimethylcyclohex-1-en-1-yl]methyl}piperazin-1-yl)-2-(1H-pyrrolo[2,3-b]pyridin-5-yloxy)benzoyl]sulfamoyl}-2-nitrophenoxy)methyl]cyclohexyl dihydrogen phosphate [Example 5] | 42 | >6580 | – | – | – |
| CO[C@H]1CC[C@H](CNc2ccc(S(=O)(=O)NC(=O)c3ccc(N4CCN(CC5=C(c6ccc(Cl)cc6)CC(C)(C)CC5)CC4)cc3Oc3cnc4[nH]ccc4c3)cc2[N+](=O)[O-])CC1 [Example 1M, Trans-4-(4-{[2-(4-chlorophenyl)-4,4-dimethylcyclohex-1-en-1-yl]methyl}piperazin-1-yl)-N-[(4-{[(4-methoxycyclohexyl)methyl]amino}-3-nitrophenyl)sulfonyl]-2-(1H-pyrrolo[2,3-b]pyridin-5-yloxy)benzamide] | – | – | – | < 1 | – |
| CC1(C)CCC(CN2CCN(c3ccc(C(=O)NS(=O)(=O)c4ccc(NCC5CCOCC5)c([N+](=O)[O-])c4)c(Oc4cnc5[nH]ccc5c4)c3)CC2)=C(c2ccc(Cl)cc2)C1 [Example 2B, 4-(4-{[2-(4-chlorophenyl)-4,4-dimethylcyclohex-1-en-1-yl]methyl}piperazin-1-yl)-N-({3-nitro-4-[(tetrahydro-2H-pyran-4-ylmethyl)amino]phenyl}sulfonyl)-2-(1H-pyrrolo[2,3-b]pyridin-5-yloxy)benzamide] | – | – | – | < 4 | – |
| CO[C@H]1CC[C@H](CNc2ccc(S(=O)(=O)NC(=O)c3ccc(N4CCN(CC5=C(c6ccc(Cl)cc6)CC(C)(C)CC5)CC4)cc3Oc3cc4ccnc-4n(COP(=O)(O)O)c3)cc2[N+](=O)[O-])CC1 [Example 1, {5-[5-(4-{[2-(4-chlorophenyl)-4,4-dimethylcyclohex-1-en-1-yl]methyl}piperazin-1-yl)-2-{[(4-{[(trans-4-methoxycyclohexyl)methyl]amino}-3-nitrophenyl)sulfonyl]carbamoyl}phenoxy]-7H-pyrrolo[2,3-b]pyridin-7-yl}methyl dihydrogen phosphate] | 310 | – | < 0.01 | – | >1159 |
| 3-[(4-{[4-(4-{[2-(4-chlorophenyl)-4,4-dimethylcyclohex-1-en-1-yl]methyl}piperazin-1-yl)-2-(1H-pyrrolo[2,3-b]pyridin-5-yloxy)benzoyl]sulfamoyl}-2-nitrophenyl)amino]-2,2-dimethylpropyl dihydrogen phosphate [Example 4] | > 1000 | 169 | < 0.01 | – | – |
| CC1(C)CCC(CN2CCN(c3ccc(C(=O)NS(=O)(=O)c4ccc(OCC5(F)CCOCC5)c([N+](=O)[O-])c4)c(Oc4cnc5[nH]ccc5c4)c3)CC2)=C(c2ccc(Cl)cc2)C1 [Example 3E, 4-(4-{[2-(4-chlorophenyl)-4,4-dimethylcyclohex-1-en-1-yl]methyl}piperazin-1-yl)-N-({4-[(4-fluorotetrahydro-2H-pyran-4-yl)methoxy]-3-nitrophenyl}sulfonyl)-2-(1H-pyrrolo[2,3-b]pyridin-5-yloxy)benzamide] | – | – | – | < 1 | – |
| CC(C)(CO)CNc1ccc(S(=O)(=O)NC(=O)c2ccc(N3CCN(CC4=C(c5ccc(Cl)cc5)CC(C)(C)CC4)CC3)cc2Oc2cnc3[nH]ccc3c2)cc1[N+](=O)[O-] [Example 6, 4-(4-{[2-(4-chlorophenyl)-4,4-dimethylcyclohex-1-en-1-yl]methyl}piperazin-1-yl)-N-({4-[(3-hydroxy-2,2-dimethylpropyl)amino]-3-nitrophenyl}sulfonyl)-2-(1H-pyrrolo[2,3-b]pyridin-5-yloxy)benzamide] | – | – | – | < 1 | – |
| CC1(C)CCC(CN2CCN(c3ccc(C(=O)NS(=O)(=O)c4ccc(OC[C@H]5CC[C@H](O)CC5)c([N+](=O)[O-])c4)c(Oc4cnc5[nH]ccc5c4)c3)CC2)=C(c2ccc(Cl)cc2)C1 [Example 7, Trans-4-(4-{[2-(4-chlorophenyl)-4,4-dimethylcyclohex-1-en-1-yl]methyl}piperazin-1-yl)-N-({4-[(4 hydroxycyclohexyl)methoxy]-3-nitrophenyl}sulfonyl)-2-(1H-pyrrolo[2,3-b]pyridin-5-yloxy)benzamide] | – | – | – | < 1 | – |
